# Active and inactive are the calls of the source. No rule for the calls is given here.
# Tested on: CCRIS mutagenicity, Ames/micronucleus/aberration tests
# Assay: CCRIS mutagenicity studies
# [1] = Test System: AMES SALMONELLA TYPHIMURIUM, Strain/Indicator: TA98, Metabolic Activation: NONE, Method: PREINCUBATION
# [2] = Test System: AMES SALMONELLA TYPHIMURIUM, Strain/Indicator: TA100, Metabolic Activation: NONE, Method: PREINCUBATION
# [3] = Test System: AMES SALMONELLA TYPHIMURIUM, Strain/Indicator: TA100, Metabolic Activation: NONE, Method: STANDARD PLATE
# [4] = Test System: AMES SALMONELLA TYPHIMURIUM, Strain/Indicator: TA1535, Metabolic Activation: NONE, Method: PREINCUBATION
# [5] = Test System: AMES SALMONELLA TYPHIMURIUM, Strain/Indicator: TA1537, Metabolic Activation: NONE, Method: PREINCUBATION
structure (smiles),measurement,setting,value
CC(C)=CCC/C(C)=C/C=O,mutagenic call,"Test System: AMES SALMONELLA TYPHIMURIUM, Strain/Indicator: TA97A, Metabolic Activation: NONE, Method: STANDARD PLATE",inactive; negative
same,mutagenic call,"Test System: AMES SALMONELLA TYPHIMURIUM, Strain/Indicator: TA97A, Metabolic Activation: RAT LIVER S-9, AROCLOR 1254, Method: STANDARD PLATE",inactive; negative
same,mutagenic call,"Test System: AMES SALMONELLA TYPHIMURIUM, Strain/Indicator: TA98, Metabolic Activation: HAMSTER, LIVER, S-9, AROCLOR 1254 (10%), Method: PREINCUBATION",inactive; negative
same,mutagenic call,[1],inactive; negative
same,mutagenic call,"Test System: AMES SALMONELLA TYPHIMURIUM, Strain/Indicator: TA98, Metabolic Activation: NONE, Method: STANDARD PLATE",inactive; negative
same,mutagenic call,"Test System: AMES SALMONELLA TYPHIMURIUM, Strain/Indicator: TA98, Metabolic Activation: RAT LIVER S-9, AROCLOR 1254, Method: STANDARD PLATE",inactive; negative
same,mutagenic call,"Test System: AMES SALMONELLA TYPHIMURIUM, Strain/Indicator: TA98, Metabolic Activation: RAT, LIVER, S-9, AROCLOR 1254 (10%), Method: PREINCUBATION",inactive; negative
same,mutagenic call,"Test System: AMES SALMONELLA TYPHIMURIUM, Strain/Indicator: TA100, Metabolic Activation: HAMSTER, LIVER, S-9, AROCLOR 1254 (10%), Method: PREINCUBATION",inactive; negative
same,mutagenic call,[2],inactive; negative
same,mutagenic call,[3],inactive; negative
same,mutagenic call,"Test System: AMES SALMONELLA TYPHIMURIUM, Strain/Indicator: TA100, Metabolic Activation: RAT LIVER S-9, AROCLOR 1254, Method: STANDARD PLATE",inactive; negative
same,mutagenic call,"Test System: AMES SALMONELLA TYPHIMURIUM, Strain/Indicator: TA100, Metabolic Activation: RAT, LIVER, S-9, AROCLOR 1254 (10%), Method: PREINCUBATION",inactive; negative
same,mutagenic call,"Test System: AMES SALMONELLA TYPHIMURIUM, Strain/Indicator: TA102, Metabolic Activation: NONE, Method: STANDARD PLATE",inactive; negative
same,mutagenic call,"Test System: AMES SALMONELLA TYPHIMURIUM, Strain/Indicator: TA102, Metabolic Activation: RAT LIVER S-9, AROCLOR 1254, Method: STANDARD PLATE",inactive; negative
same,mutagenic call,"Test System: AMES SALMONELLA TYPHIMURIUM, Strain/Indicator: TA1535, Metabolic Activation: HAMSTER, LIVER, S-9, AROCLOR 1254 (10%), Method: PREINCUBATION",inactive; negative
same,mutagenic call,[4],inactive; negative
same,mutagenic call,"Test System: AMES SALMONELLA TYPHIMURIUM, Strain/Indicator: TA1535, Metabolic Activation: RAT, LIVER, S-9, AROCLOR 1254 (10%), Method: PREINCUBATION",inactive; negative
same,mutagenic call,"Test System: AMES SALMONELLA TYPHIMURIUM, Strain/Indicator: TA1537, Metabolic Activation: HAMSTER, LIVER, S-9, AROCLOR 1254 (10%), Method: PREINCUBATION",inactive; negative
same,mutagenic call,[5],inactive; negative
same,mutagenic call,"Test System: AMES SALMONELLA TYPHIMURIUM, Strain/Indicator: TA1537, Metabolic Activation: RAT, LIVER, S-9, AROCLOR 1254 (10%), Method: PREINCUBATION",inactive; negative
CC(=O)C[C@@H]1CCCCCC(=O)O[C@H](CC(C)=O)CCC(=O)CCC(=O)O1,mutagenic call,"Test System: CHINESE HAMSTER V-79, Strain/Indicator: V-79 (HPRT)/6-THIOGUANINE, Metabolic Activation: NONE",active; positive
COS(=O)(=O)c1ccc(C)cc1,mutagenic call,"End Point: IN VITRO MICRONUCLEUS, Test System: MOUSE LYMPHOMA L5178Y CELLS, Metabolic Activation: NONE",active; positive
same,mutagenic call,"End Point: IN VITRO MICRONUCLEUS, Test System: MOUSE LYMPHOMA L5178Y CELLS, Metabolic Activation: RAT, LIVER, S-9",active; positive
same,mutagenic call,"End Point: In vitro micronucleus, Test System: Chinese Hamster Ovary (CHO-WBL) cells, Metabolic Activation: None",active; positive (p<0.01)
same,mutagenic call,[3],active; positive
same,mutagenic call,"Test System: AMES SALMONELLA TYPHIMURIUM, Strain/Indicator: TA100, Metabolic Activation: RAT, LIVER, S-9, Method: STANDARD PLATE",active; positive
O=C1C=C(CCl)CO1,mutagenic call,[3],active; positive
O=C(O)CCCl,mutagenic call,"Test System: Ames Salmonella typhimurium, Strain/Indicator: TA98, Metabolic Activation: None, Method: Preincubation",inactive; negative
same,mutagenic call,"Test System: Ames Salmonella typhimurium, Strain/Indicator: TA98, Metabolic Activation: Rat, Liver, S9, Sodium phenobarbital and 5,6-benzoflavone (10%), Method: Preincubation",inactive; negative
same,mutagenic call,"Test System: Ames Salmonella typhimurium, Strain/Indicator: TA100, Metabolic Activation: None, Method: Preincubation",active; positive
same,mutagenic call,"Test System: Ames Salmonella typhimurium, Strain/Indicator: TA100, Metabolic Activation: Rat, Liver, S9, Sodium phenobarbital and 5,6-benzoflavone (10%), Method: Preincubation",active; positive
same,mutagenic call,"Test System: Ames Salmonella typhimurium, Strain/Indicator: TA1535, Metabolic Activation: None, Method: Preincubation",active; positive
same,mutagenic call,"Test System: Ames Salmonella typhimurium, Strain/Indicator: TA1535, Metabolic Activation: Rat, Liver, S9, Sodium phenobarbital and 5,6-benzoflavone (10%), Method: Preincubation",active; positive
same,mutagenic call,"Test System: Ames Salmonella typhimurium, Strain/Indicator: TA1537, Metabolic Activation: Rat, Liver, S9, Sodium phenobarbital and 5,6-benzoflavone (10%), Method: Preincubation",inactive; negative
same,mutagenic call,"Test System: E. coli, Strain/Indicator: WP2uvrA/pKM101, Metabolic Activation: None, Method: Preincubation",active; positive
same,mutagenic call,"Test System: E. coli, Strain/Indicator: WP2uvrA/pKM101, Metabolic Activation: Rat, Liver, S9, Sodium phenobarbital and 5,6-benzoflavone (10%), Method: Preincubation",active; positive
Nc1ccc2cc3ccccc3nc2c1,mutagenic call,[4],inactive; negative
same,mutagenic call,"Test System: AMES SALMONELLA TYPHIMURIUM, Strain/Indicator: TA1535, Metabolic Activation: RAT, LIVER, S-9, TETRACHLOROBIPHENYL, Method: PREINCUBATION",active; positive
same,mutagenic call,[5],active; positive
same,mutagenic call,"Test System: AMES SALMONELLA TYPHIMURIUM, Strain/Indicator: TA1537, Metabolic Activation: RAT, LIVER, S-9, TETRACHLOROBIPHENYL, Method: PREINCUBATION",active; positive
same,mutagenic call,"Test System: AMES SALMONELLA TYPHIMURIUM, Strain/Indicator: TA1538, Metabolic Activation: NONE, Method: PREINCUBATION",active; positive
same,mutagenic call,"Test System: AMES SALMONELLA TYPHIMURIUM, Strain/Indicator: TA1538, Metabolic Activation: RAT, LIVER, S-9, TETRACHLOROBIPHENYL, Method: PREINCUBATION",active; positive
same,mutagenic call,"Test System: AMES SALMONELLA TYPHIMURIUM, Strain/Indicator: TA1975, Metabolic Activation: RAT, LIVER, S-9, TETRACHLOROBIPHENYL, Method: PREINCUBATION",inactive; negative
same,mutagenic call,"Test System: AMES SALMONELLA TYPHIMURIUM, Strain/Indicator: TA1977, Metabolic Activation: NONE, Method: PREINCUBATION",active; positive
same,mutagenic call,"Test System: AMES SALMONELLA TYPHIMURIUM, Strain/Indicator: TA1977, Metabolic Activation: RAT, LIVER, S-9, TETRACHLOROBIPHENYL, Method: PREINCUBATION",active; positive
same,mutagenic call,"Test System: AMES SALMONELLA TYPHIMURIUM, Strain/Indicator: TA1978, Metabolic Activation: RAT, LIVER, S-9, TETRACHLOROBIPHENYL, Method: PREINCUBATION",active; positive
O=C(O)Cc1ccccc1Cl,mutagenic call,[1],inactive; negative
same,mutagenic call,"Test System: AMES SALMONELLA TYPHIMURIUM, Strain/Indicator: TA98, Metabolic Activation: RAT LIVER S-9, PCB, Method: PREINCUBATION",inactive; negative
same,mutagenic call,[2],inactive; negative
same,mutagenic call,"Test System: AMES SALMONELLA TYPHIMURIUM, Strain/Indicator: TA100, Metabolic Activation: RAT LIVER S-9, PCB, Method: PREINCUBATION",inactive; negative
same,mutagenic call,"Test System: AMES SALMONELLA TYPHIMURIUM, Strain/Indicator: TA104, Metabolic Activation: NONE, Method: PREINCUBATION",inactive; negative
same,mutagenic call,"Test System: AMES SALMONELLA TYPHIMURIUM, Strain/Indicator: TA104, Metabolic Activation: RAT LIVER S-9, PCB, Method: PREINCUBATION",inactive; negative
same,mutagenic call,"Test System: E.COLI, Strain/Indicator: WP2 UVRA, Metabolic Activation: NONE, Method: PREINCUBATION",inactive; negative
same,mutagenic call,"Test System: E.COLI, Strain/Indicator: WP2 UVRA, Metabolic Activation: RAT LIVER S-9, PCB, Method: PREINCUBATION",inactive; negative
